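These data come from cells grown in 96-well plates and exposed to compound for 48 hours at five concentrations. The concentration for 50% growth inhibition is given as GI50.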 Calls of active or inactive are those of the source. Cut-off read from the data, not from the text of the source: active = GI50 up to about 1.1 µM and inactive = higher.
Tests used:
Assay in all cases: NCI anticancer screen, dose series, 48 h
ACHN = tested on: ACHN
TK-10 = tested on: TK-10
COLO 205 = tested on: COLO 205
HCC 2998 = tested on: HCC 2998
A549 = tested on: A549
SK-MEL-28 = tested on: SK-MEL-28
MDA-MB-435 = tested on: MDA-MB-435
CCRF-CEM = tested on: CCRF-CEM
DU-145 = tested on: DU-145
SF-539 = tested on: SF-539
NCI-H226 = tested on: NCI-H226
Hs-578T = tested on: Hs-578T
OVCAR-5 = tested on: OVCAR-5
MDA-N = tested on: MDA-N
CAKI-1 = tested on: CAKI-1
LOX IMVI = tested on: LOX IMVI
SR = tested on: SR
MCF7 = tested on: MCF7
HT-29 = tested on: HT-29
SNB-75 = tested on: SNB-75

Compound | GI50 (ACHN) | GI50 (TK-10) | GI50 (COLO 205) | GI50 (HCC 2998) | GI50 (A549) | GI50 (SK-MEL-28) | GI50 (MDA-MB-435) | GI50 (CCRF-CEM) | GI50 (DU-145) | GI50 (SF-539) | GI50 (NCI-H226) | GI50 (Hs-578T) | GI50 (OVCAR-5) | GI50 (MDA-N) | GI50 (CAKI-1) | GI50 (LOX IMVI) | GI50 (SR) | GI50 (MCF7) | GI50 (HT-29) | GI50 (SNB-75)
CC1(C)OC2C(CO)OC(n3cnc(N)nc3=O)C2O1 (centres undefined) | > 100 µM (inactive) | > 100 µM (inactive) | > 100 µM (inactive) | > 100 µM (inactive) | > 100 µM (inactive) | > 100 µM (inactive) | > 100 µM (inactive) | > 100 µM (inactive) | > 100 µM (inactive) | > 100 µM (inactive) | > 100 µM (inactive) | > 100 µM (inactive) | > 100 µM (inactive) | > 100 µM (inactive) | > 100 µM (inactive) | > 100 µM (inactive) | > 100 µM (inactive) | > 100 µM (inactive) |  | 
CCc1nc2cc(/N=N/c3c(O)ccc4ccccc34)ccc2[nH]1 | 17.1 µM (inactive) | 18.4 µM (inactive) | 21.2 µM (inactive) | 14.6 µM (inactive) | 21.4 µM (inactive) | 20.3 µM (inactive) | 19.7 µM (inactive) | 3.47 µM (inactive) | 17 µM (inactive) | 18.1 µM (inactive) | 22.3 µM (inactive) | 21.1 µM (inactive) | 17.5 µM (inactive) | 23.8 µM (inactive) | 22.4 µM (inactive) | 10.1 µM (inactive) | 2.14 µM (inactive) | 18.4 µM (inactive) | 19.4 µM (inactive) | 20.6 µM (inactive)
COc1ccc(-c2c(=O)[nH]n3c(=S)[nH]c(-c4ccccc4)nc23)cc1OC | 23.3 µM (inactive) | 22.6 µM (inactive) | 16.8 µM (inactive) | 18.5 µM (inactive) | 31.7 µM (inactive) | 21.3 µM (inactive) | 18.9 µM (inactive) | 9.1 µM (inactive) | 23 µM (inactive) |  | 19.2 µM (inactive) | 29.7 µM (inactive) | 20.7 µM (inactive) | 14.8 µM (inactive) | 24.3 µM (inactive) | 17.2 µM (inactive) | 6.9 µM (inactive) | 15.8 µM (inactive) | 21.6 µM (inactive) | 24.5 µM (inactive)
O=C(c1ccc(-c2ccccc2)cc1)N(Cc1cccnc1)C(=S)N(Cc1cccnc1)C(=O)c1ccc(-c2ccccc2)cc1 | > 100 µM (inactive) | > 100 µM (inactive) | > 100 µM (inactive) | > 100 µM (inactive) | > 100 µM (inactive) | > 100 µM (inactive) | 54.6 µM (inactive) | > 100 µM (inactive) | > 100 µM (inactive) | > 100 µM (inactive) | 76.2 µM (inactive) | > 100 µM (inactive) | > 100 µM (inactive) | 43.5 µM (inactive) | 27.1 µM (inactive) | > 100 µM (inactive) | 0.241 µM (active) | 41.6 µM (inactive) | 48.5 µM (inactive) | 
COc1cc(C2CC(C)(N3CCCC3)Oc3cc4c(cc32)OCO4)cc(OC)c1OC (centres undefined) | 0.69 µM (active) |  | 2.9 µM (inactive) | 0.618 µM (active) | 0.462 µM (active) | 0.569 µM (active) | 0.0211 µM (active) | 0.184 µM (active) | 0.42 µM (active) | 0.215 µM (active) | 4.69 µM (inactive) | 0.259 µM (active) | > 100 µM (inactive) | 0.0275 µM (active) | 0.527 µM (active) | 0.426 µM (active) | 0.488 µM (active) | 0.0925 µM (active) | 0.165 µM (active) | 0.0865 µM (active)
Oc1c([Si](c2ccccc2)(c2ccccc2)c2ccccc2)cc2ccccc2c1-c1c(O)c([Si](c2ccccc2)(c2ccccc2)c2ccccc2)cc2ccccc12 | > 100 µM (inactive) | > 100 µM (inactive) | > 100 µM (inactive) | > 100 µM (inactive) | > 100 µM (inactive) | > 100 µM (inactive) | > 100 µM (inactive) | > 100 µM (inactive) | > 100 µM (inactive) | > 100 µM (inactive) |  | > 100 µM (inactive) | > 100 µM (inactive) | > 100 µM (inactive) | > 100 µM (inactive) | > 100 µM (inactive) | > 100 µM (inactive) | > 100 µM (inactive) | > 100 µM (inactive) | > 100 µM (inactive)
c1ccc(SCCc2ccncc2)cc1 | > 100 µM (inactive) | > 100 µM (inactive) | > 100 µM (inactive) | > 100 µM (inactive) | 84.5 µM (inactive) | > 100 µM (inactive) | > 100 µM (inactive) | 31.3 µM (inactive) | > 100 µM (inactive) | > 100 µM (inactive) | 77.1 µM (inactive) | > 100 µM (inactive) | > 100 µM (inactive) | > 100 µM (inactive) | 53 µM (inactive) | > 100 µM (inactive) | 19.3 µM (inactive) | 91.4 µM (inactive) | > 100 µM (inactive) | > 100 µM (inactive)
